Like-named read-outs stand apart in the source and are kept apart here.
Experiments:
[1] = In vitro release, USP XXI "paddle" apparatus, distilled water at 37° C.; type: physicochemical
Experimental: "In vitro" experiments were carried out both on (i) the uncoated solid matrix-type reservoirs, and (ii) the finished devices; i.e., on the reservoirs coated both with the release rate-controlling membrane and with the protective membrane loaded with a portion of the active principle which is desired to be immediately available.
To carry out such experiments, a USP XXI "paddle" apparatus was used with distilled water at 37° C. as the dissolution medium.

[2] = In vitro model, diltiazem release (Example 7; apparatus not restated); type: physicochemical
[3] = Ex. 1 device, healthy volunteer
Experimental: A healthy volunteer was administered the same device. The following plasma levels of active principle were detected.

[4] = In vitro release, USP XXI "paddle" apparatus, distilled water at 37° C.; type: physicochemical; conditions: Ex. 2, coated reservoir, no drug in protective membrane
[5] = Ex. 1, coated reservoir, drug-loaded protective membrane, 1 h
[6] = Ex. 1, coated reservoir, drug-loaded protective membrane, 2 h
[7] = Ex. 1, coated reservoir, drug-loaded protective membrane, 3 h
[8] = Ex. 1, coated reservoir, drug-loaded protective membrane, 4 h
[9] = Ex. 1, coated reservoir, drug-loaded protective membrane, 5 h
[10] = Ex. 1, coated reservoir, drug-loaded protective membrane, 6 h
[11] = Ex. 1, uncoated solid matrix-type reservoir (100 mg), 30 min
[12] = Ex. 1, uncoated solid matrix-type reservoir (100 mg), 60 min
[13] = Ex. 1, uncoated solid matrix-type reservoir (100 mg), 90 min
[14] = Ex. 1, uncoated solid matrix-type reservoir (100 mg), 120 min

CC(=O)O[C@H](CC(=O)[O-])C[N+](C)(C)C [Acetyl L-carnitine, acetyl L-carnitine]
Total drug released ([1]; Ex. 3, coated reservoir, no drug in protective membrane, 1 h): 60 mg | Total drug released ([1]; Ex. 3, coated reservoir, no drug in protective membrane, 2 h): 135 mg | Total drug released ([1]; Ex. 3, coated reservoir, no drug in protective membrane, 3 h): 210 mg | Total drug released ([1]; Ex. 3, coated reservoir, no drug in protective membrane, 4 h): 280 mg | Total drug released ([1]; Ex. 3, coated reservoir, no drug in protective membrane, 5 h): 348 mg | Total drug released ([1]; Ex. 3, coated reservoir, no drug in protective membrane, 6 h): 411 mg | Total drug released ([1]; Ex. 3, uncoated solid matrix-type reservoir (500 mg), 30 min): 158 mg | Total drug released ([1]; Ex. 3, uncoated solid matrix-type reservoir (500 mg), 60 min): 242 mg | Total drug released ([1]; Ex. 3, uncoated solid matrix-type reservoir (500 mg), 90 min): 335 mg | Total drug released ([1]; Ex. 3, uncoated solid matrix-type reservoir (500 mg), 120 min): 395 mg

COc1ccc2c(C(=O)c3ccc(Cl)cc3)c(C)n(CC(=O)O)c2c1.NCCCCC(N)C(=O)O [Clometacin lysinate, clometacin lysinate]
Total drug released ([1]; Ex. 4, coated reservoir, drug-loaded protective membrane, 1 h): 15 mg | Total drug released ([1]; Ex. 4, coated reservoir, drug-loaded protective membrane, 2 h): 40 mg | Total drug released ([1]; Ex. 4, coated reservoir, drug-loaded protective membrane, 3 h): 61 mg | Total drug released ([1]; Ex. 4, coated reservoir, drug-loaded protective membrane, 4 h): 78 mg | Total drug released ([1]; Ex. 4, coated reservoir, drug-loaded protective membrane, 5 h): 95 mg | Total drug released ([1]; Ex. 4, coated reservoir, drug-loaded protective membrane, 6 h): 116 mg | Total drug released ([1]; Ex. 4, uncoated solid matrix-type reservoir (150 mg), 30 min): 63 mg | Total drug released ([1]; Ex. 4, uncoated solid matrix-type reservoir (150 mg), 60 min): 91 mg | Total drug released ([1]; Ex. 4, uncoated solid matrix-type reservoir (150 mg), 90 min): 105 mg | Total drug released ([1]; Ex. 4, uncoated solid matrix-type reservoir (150 mg), 120 min): 124 mg

COc1ccc([C@@H]2Sc3ccccc3N(CCN(C)C)C(=O)[C@@H]2OC(C)=O)cc1.Cl [Diltiazem, diltiazem HCl]
Total drug released ([2]; Ex. 7, coated reservoir, no drug in protective membrane, 0.5 h): 14.4 mg | Total drug released ([2]; Ex. 7, coated reservoir, no drug in protective membrane, 1 h): 29.5 mg | Total drug released ([2]; Ex. 7, coated reservoir, no drug in protective membrane, 2 h): 67.6 mg | Total drug released ([2]; Ex. 7, coated reservoir, no drug in protective membrane, 3 h): 89.9 mg | Total drug released ([2]; Ex. 7, coated reservoir, no drug in protective membrane, 4 h): 102.3 mg | Total drug released ([2]; Ex. 7, uncoated solid matrix-type reservoir (120 mg), 15 min): 40.0 mg | Total drug released ([2]; Ex. 7, uncoated solid matrix-type reservoir (120 mg), 30 min): 57.6 mg | Total drug released ([2]; Ex. 7, uncoated solid matrix-type reservoir (120 mg), 45 min): 69.6 mg | Total drug released ([2]; Ex. 7, uncoated solid matrix-type reservoir (120 mg), 60 min): 80.4 mg | Total drug released ([2]; Ex. 7, uncoated solid matrix-type reservoir (120 mg), 75 min): 85.2 mg

COc1ccc2c(c1)c(CC(=O)O)c(C)n2C(=O)c1ccc(Cl)cc1.NCCCC[C@H](N)C(=O)O [Indomethacin lysinate, Lysine salt of indomethacin]
Plasma level of active principle ([3]; 1 h): 1600 ng/mL | Plasma level of active principle ([3]; 2 h): 2500 ng/mL | Plasma level of active principle ([3]; 5 h): 3200 ng/mL | Plasma level of active principle ([3]; 8 h): 1500 ng/mL | Plasma level of active principle ([3]; 12 h): 1100 ng/mL | Plasma level of active principle ([3]; 24 h): 800 ng/mL | Release rate in vitro ([1]; Ex. 1, after release rate-controlling membrane is applied): substantially constant through the sixth hour | Rate [1, 5]: 14 mg/h | Total drug released [1, 5]: 14 mg | Rate [1, 6]: 12.5 mg/h | Total drug released [1, 6]: 25 mg | Rate [1, 7]: 13.3 mg/h | Total drug released [1, 7]: 40 mg | Rate [1, 8]: 14.25 mg/h | Total drug released [1, 8]: 57 mg | Rate [1, 9]: 15.4 mg/h | Total drug released [1, 9]: 77 mg | Rate [1, 10]: 15.5 mg/h | Total drug released [1, 10]: 93 mg | Time in which drug is wholly released ([1]; Ex. 1, uncoated solid matrix-type reservoir): about 5 hours | Rate [1, 11]: 40 mg/h | Total drug released [1, 11]: 20 mg | Rate [1, 12]: 54 mg/h | Total drug released [1, 12]: 54 mg | Rate [1, 13]: 43 mg/h | Total drug released [1, 13]: 65 mg | Rate [1, 14]: 37.5 mg/h | Total drug released [1, 14]: 75 mg

CCC(COC(=O)c1cc(OC)c(OC)c(OC)c1)(c1ccccc1)N(C)C (stereo not shown) [Trimebutine, trimebutine]
Total drug released ([1]; Ex. 5, coated reservoir, drug-loaded protective membrane, 1 h): 18 mg | Total drug released ([1]; Ex. 5, coated reservoir, drug-loaded protective membrane, 2 h): 30 mg | Total drug released ([1]; Ex. 5, coated reservoir, drug-loaded protective membrane, 3 h): 50 mg | Total drug released ([1]; Ex. 5, coated reservoir, drug-loaded protective membrane, 4 h): 67 mg | Total drug released ([1]; Ex. 5, coated reservoir, drug-loaded protective membrane, 5 h): 90 mg | Total drug released ([1]; Ex. 5, coated reservoir, drug-loaded protective membrane, 6 h): 103 mg | Total drug released ([1]; Ex. 5, uncoated solid matrix-type reservoir (140 mg), 30 min): 20 mg | Total drug released ([1]; Ex. 5, uncoated solid matrix-type reservoir (140 mg), 60 min): 64 mg | Total drug released ([1]; Ex. 5, uncoated solid matrix-type reservoir (140 mg), 90 min): 80 mg | Total drug released ([1]; Ex. 5, uncoated solid matrix-type reservoir (140 mg), 120 min): 105 mg | Total drug released ([1]; Ex. 6, coated reservoir, protective membrane loaded with 15 mg drug, 0.5 h): 22.5 mg | Total drug released ([1]; Ex. 6, coated reservoir, protective membrane loaded with 15 mg drug, 1 h): 45.0 mg | Total drug released ([1]; Ex. 6, coated reservoir, protective membrane loaded with 15 mg drug, 2 h): 82.5 mg | Total drug released ([1]; Ex. 6, coated reservoir, protective membrane loaded with 15 mg drug, 3 h): 105.0 mg | Total drug released ([1]; Ex. 6, coated reservoir, protective membrane loaded with 15 mg drug, 4 h): 120.0 mg | Total drug released ([1]; Ex. 6, coated reservoir, protective membrane loaded with 15 mg drug, 5 h): 127.5 mg | Total drug released ([1]; Ex. 6, uncoated solid matrix-type reservoir (135 mg), 20 min): 47 mg | Total drug released ([1]; Ex. 6, uncoated solid matrix-type reservoir (135 mg), 40 min): 64.8 mg | Total drug released ([1]; Ex. 6, uncoated solid matrix-type reservoir (135 mg), 60 min): 77.0 mg | Total drug released ([1]; Ex. 6, uncoated solid matrix-type reservoir (135 mg), 80 min): 87.8 mg | Total drug released ([1]; Ex. 6, uncoated solid matrix-type reservoir (135 mg), 100 min): 94.5 mg | Total drug released ([1]; Ex. 6, uncoated solid matrix-type reservoir (135 mg), 180 min): 115 mg

methisoprinol
Total drug released ([1]; Ex. 2, coated reservoir, no drug in protective membrane, 2 h): 115 mg | Total drug released ([1]; Ex. 2, coated reservoir, no drug in protective membrane, 3 h): 173 mg | Total drug released ([1]; Ex. 2, coated reservoir, no drug in protective membrane, 4 h): 223 mg | Total drug released ([1]; Ex. 2, coated reservoir, no drug in protective membrane, 6 h): 315 mg | Total drug released ([1]; Ex. 2, coated reservoir, no drug in protective membrane, 7 h): 357 mg | Total drug released ([1]; Ex. 2, uncoated solid matrix-type reservoir (500 mg), 30 min): 225 mg | Total drug released ([1]; Ex. 2, uncoated solid matrix-type reservoir (500 mg), 60 min): 312 mg | Total drug released ([1]; Ex. 2, uncoated solid matrix-type reservoir (500 mg), 90 min): 365 mg | Total drug released ([1]; Ex. 2, uncoated solid matrix-type reservoir (500 mg), 120 min): 405 mg | Total drug released ([4]; 1 h): 53 mg | Total drug released ([4]; 5 h): 273 mg

Reference: patent US4681755A, “Delivery device for zero-order release of an active principle into a dissolution fluid and process for its preparation” (Sigma-Tau Industrie Farmaceutiche Riunite S.p.A., priority 1984, dated 1987)
